According to US20240190889A1, “NEW CYCLOPENTA-THIENO-DIAZEPINE DERIVATIVES AS GABA A GAMMA1 POSITIVE ALLOSTERIC MODULATORS” (Hoffmann-La Roche Inc., priority 2021, published 2024):
Read-outs that look alike come from different tables or passages of the source.

Assays:
[1] = molecular target: h-GABA-A α2β2γ1 receptor expressed in Xenopus laevis oocytes (Homo sapiens (Human), UniProt P47869+Q8N1C3); assay: Two-electrode voltage clamp electrophysiology in Xenopus oocytes expressing GABAA receptors; format: cell-based; details: for Efficacy (GABA)%: % modulation of GABA EC20 = 100*(Fold increase-1), compound at 30-fold Ki α2β2γ1; for Fold increase h-GABA-A α2β2γ1 oocyte @ 30-fold Ki: GABA EC20, test compound at approx. 30-fold its Ki α2β2γ1, at least 3 oocytes
Description: Functional Expression of GABAA Receptors:
Xenopus Oocytes Preparation
Xenopus laevis oocytes at maturation stages V-VI were used for the expression of cloned mRNA encoding GABAA receptor subunits. Oocytes ready for RNA micro-injection were bought from Ecocyte, Castrop-Rauxel, Germany and stored in modified Barth's medium (composition in mM: NaCl 88, KCl 1, NaHCO3 2.4, HEPES 10, MgSO4 0.82, CaNO3 0.33, CaCl2 0.33, pH=7.5) at 20 C. until the experiment.
Xenopus Oocytes Microinjection
Oocytes were plated in 96-well plates for microinjection using the Roboinject automated instrument (MultiChannelSystems, Reutlingen, Germany). Approximately 50 nL of an aqueous solution containing the RNA transcripts for the subunits of the desired GABAA receptor subtype was injected into each oocyte. […] Oocytes were kept in modified Barth's medium (composition in mM: NaCl 88, KCl 1, NaHCO3 […], HEPES 10, MgSO4 0.82, CaNO3 0.33, CaCl2 0.33, pH=7.5) at 20° C. until the experiment.
Electrophysiological experiments were performed using the Roboocyte instrument (MultiChannelSystems, Reutlingen, Germany) on days 3 to 5 after the micro-injection of mRNA. During the experiment the oocytes were constantly superfused by a solution containing (in mM) NaCl 90, KCl 1, HEPES 5, MgCl: 1, CaCl, 1 (pH 7.4). Oocytes were impaled by two glass microelectrodes (resistance: 0.5-0.8 MS2) which were filled with a solution containing KCl 1M +K-acetate 1.5 M and voltage-clamped to −80 mV. The recordings were performed at room temperature using the Roboocyte two-electrode voltage clamp system (Multichannelsystem). After an initial equilibration period of 1.5 min GABA was added for 1.5 min at a concentration evoking approximately 20% of a maximal current response (EC20). After another rest interval of 2.5 min GABA was again added evoking a response of similar amplitude and shape. […] Current traces were recorded at a digitization rate of 10 Hz during and shortly before and after the GABA application.
Each compound and concentration was tested on at least 3 oocytes. Different oocytes were used for different compound concentrations.
For the analysis, the digitized current traces of the first and second GABA response were superimposed and, if necessary, rescaled to equal maximal amplitudes. The ratio between the two responses during the time interval of test compound application was calculated point by point. The extremum of the resulting “ratio trace” was taken as the efficacy (“Fold increase”) of the compound expressed as “% modulation of GABA EC” (100* (Fold increase-1)).

[2] = molecular target: human GABAA α1β2γ1 receptor (Homo sapiens (Human), UniProt P14867+Q8N1C3); assay: Radioligand binding assay, competition for [3H]RO7239181, γ1-containing GABAA subtypes
[3] = molecular target: human GABAA α1β3γ2 receptor (Homo sapiens (Human), UniProt P14867+P18507); assay: Radioligand binding assay, competition for [3H]Flumazenil, γ2-containing GABAA subtypes; details: for γ2/γ1 Selectivity Ratio: Ki α1β3γ2 (nM)/Ki α2β2γ1 (nM); for LogSel: Log[Ki α1β3γ2 (nM)/Ki α2β2γ1 (nM)]
Description: Membrane Preparation and Binding Assay for γ2-containing GABAA Subtypes
The affinity of compounds at GABAA γ2 subunit-containing receptors was measured by competition for [^3H]Flumazenil (81.1 Ci/mmol; Roche) binding to HEK293F cells expressing human (transiently transfected) receptors of composition α1β3γ2.
Harvested pellets from HEK293F cells expressing the different GABAA γ2 receptor subtypes were resuspended in Mannitol Buffer pH 7,2-7,4 and processed as described above for the cells expressing the GABAA γ1 subunit-containing receptors.
Assays were incubated to equilibrium for 1 hour at 4° C, and harvested onto GF/C uni-filters (Packard) by filtration using a Packard harvester and washing with ice-cold wash buffer (50 mM Tris; pH 7.5). After anhydrousing, filter-retained radioactivity was detected by liquid scintillation counting. Ki values were calculated using Excel-Fit (Microsoft) and are the means of two determinations.

[4] = HEK293F cell membranes, [3H]Flumazenil 1 nM, mean of two determinations, read-out: Ki h-GABAA α1β3γ2

SMILES | Efficacy (GABA)% [1] [%] | Fold increase h-GABA-A α2β2γ1 oocyte @ 30-fold Ki [1] | Ki [2] [µM] | Ki [3, 4] [µM] | γ2/γ1 Selectivity Ratio [3] | LogSel [3] | Ki [3] [µM]
Cc1nnc2n1-c1sc3c(c1C(c1c(F)cccc1Cl)=NC2)C[C@@H](C#N)C3 [Example 1, (13R)-9-(2-chloro-6-fluoro-phenyl)-3-methyl-16-thia-2,4,5,8-tetrazatetracyclo [8.6.0.02,6.011,15]hexadeca-1(10),3,5,8,11(15)-pentaene-13-carbonitrile] | 54 | 1.54 | 0.0479 | 1.25 | 49.0 | 1.69 | –
Cc1nnc2n1-c1sc3c(c1C(c1c(F)cccc1F)=NC2)C[C@@H](C(F)F)C3 [Example 3, (13R)-13-(difluoromethyl)-9-(2,6-difluorophenyl)-3-methyl-16-thia-2,4,5,8-tetrazatetracyclo [8.6.0.02,6.011,15]hexadeca-1(10),3,5,8,11(15)-pentaene] | 54 | 1.54 | 0.0168 | – | 88.4 | 1.95 | 0.257
Cc1nnc2n1-c1sc3c(c1C(c1c(F)cccc1F)=N[C@H]2C)C[C@@H](C(F)F)C3 [Example 5, (7S,13R)-13-(difluoromethyl)-9-(2,6-difluorophenyl)-3,7-dimethyl-16-thia-2,4,5,8-tetrazatetracyclo [8.6.0.02,6.011,15]hexadeca-1(10),3,5,8,11(15)-pentaene] | 41 | 1.41 | 0.0144 | – | 66.5 | 1.82 | 0.228
C[C@@H]1N=C(c2c(F)cccc2F)c2c(sc3c2C[C@@H](C(F)F)C3)-n2nc(C(=O)NCCO)nc21 [Example 18, (7S,13R)-13-(difluoromethyl)-9-(2,6-difluorophenyl)-N-(2-hydroxyethyl)-7-methyl-16-thia-2,3,5,8-tetrazatetracyclo [8.6.0.02,6.011,15]hexadeca-1(10),3,5,8,11(15)-pentaene-4-carboxamide] | 65 | 1.65 | – | 0.614 | 107.2 | 2.03 | –
C[C@@H]1N=C(c2c(F)cccc2F)c2c(sc3c2C[C@@H](C(F)F)C3)-n2nc(C(=O)N3CCS(=O)(=O)CC3)nc21 [Example 19, [(7S,13R)-13-(difluoromethyl)-9-(2,6-difluorophenyl)-7-methyl-16-thia-2,3,5,8-tetrazatetracyclo [8.6.0.02,6.011,15]hexadeca-1(10),3,5,8,11(15)-pentaen-4-yl]-(1,1-dioxo-1,4-thiazinan-4-yl)methanone] | 43 | 1.43 | – | 0.873 | 162.3 | 2.21 | –
Cc1cnc2n1-c1sc3c(c1C(c1c(F)cccc1F)=N[C@H]2C)C[C@@H](C(F)F)C3 [Example 20, (7S,13R)-13-(difluoromethyl)-9-(2,6-difluorophenyl)-3,7-dimethyl-16-thia-2,5,8-triazatetracyclo [8.6.0.02,6.011,15]hexadeca-1(10),3,5,8,11(15)-pentaene] | 70 | 1.70 | – | – | 53.4 | 1.73 | 0.191
C[C@@H]1N=C(c2c(F)cccc2F)c2c(sc3c2C[C@@H](C(F)F)C3)-n2c(CO)cnc21 [Example 21, [(7S,13R)-13-(difluoromethyl)-9-(2,6-difluorophenyl)-7-methyl-16-thia-2,5,8-triazatetracyclo [8.6.0.02,6.011,15]hexadeca-1(10),3,5,8,11(15)-pentaen-3-yl]methanol] | 68 | 1.68 | – | – | 127.6 | 2.11 | 0.606
